Measurements: PMC9529664 (Current Research in Food Science, 2022)
Residues, ends and D or L forms follow the SMILES beside them.

Target: DPP-IV enzyme (Homo sapiens, UniProt P27487)
Experiment: biochemical

Chain of DPP-IV enzyme (P27487 whole entry, species assumed): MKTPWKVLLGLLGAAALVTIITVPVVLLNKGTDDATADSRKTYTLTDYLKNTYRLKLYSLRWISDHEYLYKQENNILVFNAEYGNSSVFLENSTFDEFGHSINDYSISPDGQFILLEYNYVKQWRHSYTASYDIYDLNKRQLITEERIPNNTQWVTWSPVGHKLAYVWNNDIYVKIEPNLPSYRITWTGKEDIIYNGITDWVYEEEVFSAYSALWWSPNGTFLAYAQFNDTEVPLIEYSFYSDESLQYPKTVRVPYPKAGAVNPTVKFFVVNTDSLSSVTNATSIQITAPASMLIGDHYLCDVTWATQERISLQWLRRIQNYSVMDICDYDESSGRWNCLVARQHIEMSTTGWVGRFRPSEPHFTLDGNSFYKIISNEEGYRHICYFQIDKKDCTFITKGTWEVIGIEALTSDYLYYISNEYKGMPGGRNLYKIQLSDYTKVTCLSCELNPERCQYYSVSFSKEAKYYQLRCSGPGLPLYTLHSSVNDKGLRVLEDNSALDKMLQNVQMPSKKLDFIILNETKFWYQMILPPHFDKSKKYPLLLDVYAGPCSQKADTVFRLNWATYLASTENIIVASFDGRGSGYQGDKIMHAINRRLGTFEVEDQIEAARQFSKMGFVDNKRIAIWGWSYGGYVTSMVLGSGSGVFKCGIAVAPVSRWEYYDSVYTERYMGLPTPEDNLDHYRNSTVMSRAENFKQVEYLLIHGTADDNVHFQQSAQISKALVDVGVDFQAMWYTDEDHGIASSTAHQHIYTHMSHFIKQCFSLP

SMILES: C[C@@H](O)[C@H](NC(=O)[C@H](CC(N)=O)NC(=O)CNC(=O)[C@H](Cc1ccccc1)NC(=O)[C@@H]1CCCN1)C(=O)N[C@@H](Cc1c[nH]cn1)C(=O)N[C@@H](CC(N)=O)C(=O)N[C@@H](CC(N)=O)C(=O)N[C@@H](Cc1ccccc1)C(=O)N[C@@H](CCCCN)C(=O)O [D1] (H-PFGNTHNNFK-OH)
- IC50: 8.51 mM

SMILES: CC[C@H](C)[C@H](N)C(=O)N1CCC[C@H]1C(=O)N[C@@H](Cc1c[nH]cn1)C(=O)N[C@@H](CCC(=O)O)C(=O)N[C@@H](CO)C(=O)N[C@H](C(=O)N[C@@H](CC(=O)O)C(=O)N[C@H](C(=O)N[C@H](C(=O)N[C@@H](CCCCN)C(=O)O)[C@@H](C)CC)C(C)C)C(C)C [D22] (H-IPHESVDVIK-OH)
- IC50: 2.69 mM

SMILES: CSCC[C@H](NC(=O)[C@H](Cc1c[nH]cn1)NC(=O)[C@H](CC(N)=O)NC(=O)[C@H](CC(N)=O)NC(=O)[C@H](Cc1c[nH]cn1)NC(=O)[C@H](CCCCN)NC(=O)[C@H](CO)NC(=O)[C@H](CC(C)C)NC(=O)[C@H](CC(=O)O)NC(=O)[C@@H]1CCCN1)C(=O)O [D35] (H-PDLSKHNNHM-OH)
- IC50: 3.88 mM

SMILES: CC(C)[C@H](NC(=O)[C@H](C)NC(=O)[C@H](CCC(=O)O)NC(=O)[C@H](C)NC(=O)[C@@H]1CCCN1C(=O)[C@@H](N)CCC(=O)O)C(=O)NCC(=O)N[C@@H](CC(=O)O)C(=O)N[C@@H](Cc1c[nH]c2ccccc12)C(=O)N[C@@H](CCCNC(=N)N)C(=O)O [D37] (H-EPAEAVGDWR-OH)
- IC50: 0.1 mM
